IC50, Activity and inhibition data for 29 compounds are collected here from ChEMBL document CHEMBL4346671, “Synthesis and bioevaluation of diarylpyrazoles as antiproliferative agents” (Eur J Med Chem, 2019).

One assay concerns KB. Description: Antiproliferative activity against human KB cells measured after 72 hrs by MTT assay. The class given is functional, cell-based. (In general: Formazan colour is commonly taken as a measure of viable cells.)
Assay [1] relates to SGC-7901. The experiment in a line: Antiproliferative activity against human SGC7901 cells measured after 72 hrs by MTT assay. Conditions: SGC-7901, 72 h. The class given is functional, cell-based.
The next assay concerns HT-1080. Description: Antiproliferative activity against human HT1080 cells measured after 72 hrs by MTT assay. Type of assay: functional, cell-based. Conditions: HT-1080, 72 h.
In assay [2] the test system is SGC-7901. Description: Cell cycle arrest in human SGC7901 cells assessed as increase in cell population at G2/M phase at 2 fold IC50 concentration measured after 24 hrs by propidium iodide staining based FACScan flow cytometry. The class given is functional. (Flow cytometry measures light scatter and fluorescence of single cells or particles in a stream.)
Assay [3] has as its target T1, Tubulin (Homo sapiens) (UniProt P68371+Q9H4B7+P0DPH7+P68366+Q13509+Q71U36+P04350+Q3ZCM7+P07437+P68363+Q9BQE3+Q6PEY2+Q13885+Q9BVA1+Q9BUF5). Description: Induction of microtubule depolymerization in human SGC7901 cells assessed as change in microtubule morphology at 2 fold antiproliferative IC50 measured after 24 hrs by DAPI staining based fluorescence microscopy. The class given is cell-based.

Assay [4] deals with SGC-7901. Description: Cell cycle arrest in human SGC7901 cells assessed as increase in cell population at G2/M phase at 2 fold IC50 concentration measured after 12 hrs by propidium iodide staining based FACScan flow cytometry. Type of assay: functional.
Assay [5] addresses T2, Tubulin (Sus scrofa) (UniProt P02554+P02550). Conditions: 4 uM.
Description: Inhibition of porcine brain tubulin polymerization at 4 uM preincubated before GTP addition and measured at 1 min intervals for 90 mins by fluorescence based assay
In assay [6] the test system is SGC-7901. The experiment in a line: Cell cycle arrest in human SGC7901 cells assessed as decrease in cell population at G2/M phase at 2 fold IC50 concentration measured after 48 hrs by propidium iodide staining based FACScan flow cytometry. The class given is functional.
In assay [7] the test system is SGC-7901. Description: Induction of polyploidy in human SGC7901 cells at 2 fold IC50 concentration measured after 72 hrs by propidium iodide staining based FACScan flow cytometry. Type of assay: functional, cell-based.
In assay [8] the test system is SGC-7901. The experiment in a line: Cell cycle arrest in human SGC7901 cells assessed as increase in cell population at sub-G1 phase at 2 fold IC50 concentration measured after 36 hrs by propidium iodide staining based FACScan flow cytometry. The class given is functional.
Assay [9] deals with SGC-7901. Description: Cell cycle arrest in human SGC7901 cells assessed as decrease in cell population at G2/M phase at 2 fold IC50 concentration measured after 72 hrs by propidium iodide staining based FACScan flow cytometry. The class given is functional.
The next assay has as its target Tubulin (Sus scrofa, UniProt P02554+P02550). Description: Inhibition of porcine brain tubulin polymerization preincubated before GTP addition and measured at 1 min intervals for 90 mins by fluorescence based assay.
Assay [10] deals with SGC-7901. Description: Cell cycle arrest in human SGC7901 cells assessed as decrease in cell population at G2/M phase at 2 fold IC50 concentration measured after 36 hrs by propidium iodide staining based FACScan flow cytometry. Type of assay: functional.
Assay [11] deals with T1, Tubulin (Homo sapiens). Description: Inhibition of microtubule formation in human SGC7901 cells at 2 fold IC50 concentration measured after 24 hrs by DAPI staining based fluorescence microscopy. Type of assay: cell-based.
Assay [12] relates to SGC-7901. The experiment in a line: Cell cycle arrest in human SGC7901 cells assessed as increase in cell population at sub-G1 phase at 2 fold IC50 concentration measured after 72 hrs by propidium iodide staining based FACScan flow cytometry. The class given is functional.
For assay [13], the target named is T2, Tubulin (Sus scrofa). The experiment in a line: Inhibition of porcine brain tubulin polymerization at 3 to 20 uM preincubated before GTP addition and measured at 1 min intervals for 90 mins by fluorescence based assay.
Assay [14] has as its system SGC-7901. Description: Cell cycle arrest in human SGC7901 cells assessed as accumulation of cell population in G2/M phase at 2 fold IC50 concentration for 12 to 72 hrs by propidium iodide staining based FACScan flow cytometry. The class given is functional. Conditions: TDE = time-dependent effect.
Assay [15] deals with T1, Tubulin (Homo sapiens). Description: Inhibition of microtubule formation in human SGC7901 cells assessed as mitotic catastrophe at 2 fold IC50 concentration measured after 24 hrs by DAPI staining based fluorescence microscopy. Type of assay: cell-based.
Assay [16] concerns SGC-7901. Description: Cell cycle arrest in human SGC7901 cells assessed as increase in cell population at sub-G1 phase at 2 fold IC50 concentration measured after 48 hrs by propidium iodide staining based FACScan flow cytometry. The class given is functional.

The source made the active and inactive calls. The rule behind the calls is not given here.

The term IC50 denotes the concentration at which inhibition is half-maximal. Read a low IC50 as inhibition by little substance.

T2 sequence (P02550 whole entry, looked up): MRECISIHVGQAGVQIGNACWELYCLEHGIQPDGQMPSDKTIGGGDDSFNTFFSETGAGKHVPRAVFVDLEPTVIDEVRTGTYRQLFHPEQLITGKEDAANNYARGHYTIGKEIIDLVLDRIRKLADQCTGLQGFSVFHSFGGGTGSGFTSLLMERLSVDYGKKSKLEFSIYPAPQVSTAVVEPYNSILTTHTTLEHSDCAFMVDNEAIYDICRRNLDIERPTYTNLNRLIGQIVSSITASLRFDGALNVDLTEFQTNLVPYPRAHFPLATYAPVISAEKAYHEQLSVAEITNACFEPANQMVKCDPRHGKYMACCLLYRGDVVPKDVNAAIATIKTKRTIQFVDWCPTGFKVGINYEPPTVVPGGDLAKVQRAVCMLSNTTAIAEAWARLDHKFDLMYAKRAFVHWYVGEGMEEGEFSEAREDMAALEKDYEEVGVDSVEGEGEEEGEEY
T2 sequence (P02554 whole entry, looked up): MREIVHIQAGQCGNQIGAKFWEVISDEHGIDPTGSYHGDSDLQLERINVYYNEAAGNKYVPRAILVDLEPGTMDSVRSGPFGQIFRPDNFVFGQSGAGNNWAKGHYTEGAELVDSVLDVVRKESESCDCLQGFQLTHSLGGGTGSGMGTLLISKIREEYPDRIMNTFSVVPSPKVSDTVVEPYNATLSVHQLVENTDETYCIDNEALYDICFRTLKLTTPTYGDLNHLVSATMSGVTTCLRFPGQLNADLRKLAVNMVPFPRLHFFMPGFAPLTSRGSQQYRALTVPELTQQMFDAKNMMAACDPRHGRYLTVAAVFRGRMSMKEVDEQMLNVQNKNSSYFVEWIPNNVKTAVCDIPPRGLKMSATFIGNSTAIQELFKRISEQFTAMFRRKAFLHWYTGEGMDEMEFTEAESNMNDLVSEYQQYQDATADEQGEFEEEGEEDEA

As for `CCOc1ccc(-c2c[nH]nc2-c2cc(OC)c(OC)c(OC)c2)cc1`, the IC50 is 0.035 µM with KB, 0.03 µM in the assay with SGC-7901 [1] and 0.017 µM in the assay on HT-1080.
Consider `COc1cc(-c2n[nH]cc2-c2ccc(O)cc2)cc(OC)c1OC`, for which the IC50 with KB turned out to be 8.47 µM; with SGC-7901 [1] it was 15.4 µM; in the assay on HT-1080, 10 µM.
On the same counts, the results for `COc1ccc(-c2c(-c3cc(OC)c(OC)c(OC)c3)cnn2C(C)=O)cc1` are 0.023 µM, 0.031 µM and 0.014 µM.
Consider `COc1cc(-c2c(-c3ccc(O)cc3)cnn2C(C)=O)cc(OC)c1OC`, for which the results for the half-inhibitory concentration (IC50) in the assay on KB, with SGC-7901 [1] and with HT-1080 were 5.08 µM, 4.87 µM and 2.52 µM, respectively.
`COc1cc(-c2n[nH]cc2-c2ccc(OCc3ccccc3)cc2)cc(OC)c1OC`: the IC50 with KB amounted to 6.72 µM; with SGC-7901 [1], 13 µM; in the assay on HT-1080 it was 8.13 µM.
In the case of `COc1ccc(-c2cnn(C(C)=O)c2-c2cc(OC)c(OC)c(OC)c2)cc1`, the results for the 50% inhibitory concentration (IC50) in the assay with KB, with SGC-7901 [1] and in the assay with HT-1080 were 0.028 µM, 0.013 µM and 0.096 µM, respectively.
For the compound `COc1ccc(-c2n[nH]cc2-c2cc(OC)c(OC)c(OC)c2)cc1OCc1ccccc1`, the 50% inhibitory concentration (IC50) in the assay with KB came out at 86.2 µM; with SGC-7901 [1] it was 28.2 µM; in the assay on HT-1080, 20.8 µM.
Take `COc1ccc(-c2c[nH]nc2-c2cc(OC)c(OC)c(OC)c2)cc1OC`: the IC50 with KB amounted to 5.44 µM; with SGC-7901 [1], 36.5 µM; in the assay with HT-1080, 4.84 µM.
Regarding `COc1cc(-c2n[nH]cc2-c2ccc(F)c(F)c2)cc(OC)c1OC`, the figures for the IC50 in the assay on KB, in the assay on SGC-7901 [1] and in the assay on HT-1080 were 32.8 µM, 14 µM and 19.3 µM, respectively.
For the compound `COc1ccc(-c2c(-c3cc(OC)c(OC)c(OC)c3)cnn2C(C)=O)cc1OC`, the IC50 with KB is 0.7 µM; with SGC-7901 [1] it was 2.03 µM; in the assay with HT-1080, 1.21 µM.
Turning to `COc1ccc(/C=C\c2cc(OC)c(OC)c(OC)c2)cc1O` [COMBRETASTATIN A4], the results for the half-inhibitory concentration (IC50) in the assay with KB, in the assay with SGC-7901 [1] and in the assay with HT-1080 were 0.25 µM, 0.13 µM and 0.051 µM, respectively. Besides, the outcome in the assay on SGC-7901 [2], on Tubulin (Homo sapiens) [3] and with SGC-7901 [4] was Active. Moreover, on Tubulin (Sus scrofa) [5], the inhibition entry was “Active”.
Take `COc1cc(-c2n[nH]cc2-c2ccc(OC(F)(F)F)cc2)cc(OC)c1OC`: the results for the IC50 with KB, with SGC-7901 [1] and with HT-1080 were 2.87 µM, 1.34 µM and 1.34 µM, respectively.
With `CCOc1ccc(-c2cnn(C(C)=O)c2-c2cc(OC)c(OC)c(OC)c2)cc1`, the IC50 was found to be 0.036 µM in the assay on KB, 0.015 µM in the assay with SGC-7901 [1] and 0.019 µM in the assay with HT-1080.
As to `CCOc1ccc(-c2n[nH]cc2-c2cc(OC)c(OC)c(OC)c2)cc1`, the IC50 in the assay on KB is 0.065 µM; in the assay on SGC-7901 [1], 0.015 µM; in the assay on HT-1080, 0.021 µM.
As to `CCOc1ccc(-c2c(-c3cc(OC)c(OC)c(OC)c3)cnn2C(C)=O)cc1`, the 50% inhibitory concentration (IC50) in the assay on KB came out at 0.11 µM; in the assay on SGC-7901 [1], 0.2 µM; in the assay with HT-1080, 0.021 µM.
Take `COc1ccc(-c2cnn(C(C)=O)c2-c2cc(OC)c(OC)c(OC)c2)cc1OCc1ccccc1`: the concentration for half-maximal inhibition (IC50) came out at 6.72 µM in the assay on KB, 10.4 µM in the assay on SGC-7901 [1] and 12.2 µM in the assay with HT-1080.
The matching figures for `COc1ccc(-c2n[nH]cc2-c2cc(OC)c(OC)c(OC)c2)cc1`: 0.025 µM, 0.044 µM and 0.026 µM.
Take `COc1ccc(-c2c(-c3cc(OC)c(OC)c(OC)c3)cnn2C(C)=O)cc1O`: the 50% inhibitory concentration (IC50) worked out at 0.022 µM in the assay on KB, 7.73 µM against Tubulin, 0.0093 µM with SGC-7901 [1] and 0.012 µM with HT-1080. The result in the assay with SGC-7901 [2], at Tubulin (Homo sapiens) [3], with SGC-7901 [6], in the assay on SGC-7901 [7], in the assay on SGC-7901 [4] and in the assay on SGC-7901 [8] was Active. Further, the outcome in the assay on SGC-7901 [9], in the assay on SGC-7901 [10], with SGC-7901 [12] and in the assay on SGC-7901 [16] was Active. Besides, the inhibition result at Tubulin (Homo sapiens) [11] and at Tubulin (Homo sapiens) [15] was “Active” throughout. The inhibition entry on Tubulin (Sus scrofa) [13] is “Dose-dependent effect”. For the same compound, in the assay with SGC-7901 [14], the Activity entry was “Tde”.
As for `COc1ccc(-c2cnn(C(C)=O)c2-c2cc(OC)c(OC)c(OC)c2)cc1OC`, the results for the IC50 in the assay with KB, in the assay with SGC-7901 [1] and in the assay on HT-1080 were 4.58 µM, 4.82 µM and 1.33 µM, respectively.
Take `COc1ccc(-c2c[nH]nc2-c2cc(OC)c(OC)c(OC)c2)cc1OCc1ccccc1`: the results for the IC50 with KB, in the assay on SGC-7901 [1] and with HT-1080 were 7.1 µM, 9.26 µM and 10 µM, respectively.
For `COc1ccc(-c2n[nH]cc2-c2cc(OC)c(OC)c(OC)c2)cc1OC`, the IC50 with KB was determined as 0.62 µM; with SGC-7901 [1], 3.81 µM; with HT-1080 it was 1.92 µM.
`COc1ccc(-c2c(-c3cc(OC)c(OC)c(OC)c3)cnn2C(C)=O)cc1OCc1ccccc1`: the results for the IC50 in the assay on KB, in the assay on SGC-7901 [1] and in the assay with HT-1080 were 84.2 µM, 30.1 µM and 18.4 µM, respectively.
`COc1cc(-c2c(-c3ccc(OCc4ccccc4)cc3)cnn2C(C)=O)cc(OC)c1OC`: the IC50 was 129 µM in the assay with KB, 14.4 µM in the assay on SGC-7901 [1] and 44.9 µM in the assay with HT-1080.
As for `COc1ccc(-c2c[nH]nc2-c2cc(OC)c(OC)c(OC)c2)cc1`, the IC50 in the assay with KB worked out at 0.072 µM; in the assay with SGC-7901 [1], 0.18 µM; with HT-1080, 0.08 µM.
Turning to `COc1cccc(-c2c[nH]nc2-c2cc(OC)c(OC)c(OC)c2)c1`, the values for the IC50 with KB, in the assay with SGC-7901 [1] and in the assay with HT-1080 were 1.5 µM, 2.2 µM and 4.07 µM, respectively.
Take `COc1ccc(-c2cn[nH]c2-c2cc(OC)c(OC)c(OC)c2)cc1O`: the IC50 stood at 0.023 µM in the assay with KB, 0.031 µM with SGC-7901 [1] and 0.03 µM in the assay on HT-1080.
On the same counts, the results for `COc1ccc(-c2cnn(C(C)=O)c2-c2cc(OC)c(OC)c(OC)c2)cc1O` are 0.033 µM, 0.015 µM and 0.017 µM.
On the same counts, the results for `COc1ccc(-c2[nH]ncc2-c2cc(OC)c(OC)c(OC)c2)cc1O` are 0.06 µM, 0.032 µM and 0.023 µM.
In the case of `COc1cc(-c2c(-c3ccc(OC(F)(F)F)cc3)cnn2C(C)=O)cc(OC)c1OC`, the IC50 in the assay on KB was determined as 10.8 µM; with SGC-7901 [1] it was 13.7 µM; in the assay on HT-1080, 19.5 µM.
